{"source": "patent US20230295236A1", "about": "“COMPOUNDS FOR USE IN INFLAMMATORY CONDITIONS” (priority 2020, published 2023)", "key": {"[1]": {"system": "HIV-1 recombinant virus (NL4.3 Luc)", "type": "cell-based", "settings": "PBMCs"}, "[2]": {"system": "HIV-1 recombinant virus (NL4.3 Luc)", "type": "cell-based", "settings": "MT-2 cells"}, "HCoV-229E": {"system": "HCoV-229E", "type": "cell-based"}, "[3]": {"system": "Huh-7 cells (human hepatoma cell line)"}, "THP-1 cells": {"system": "THP-1 cells", "assay": "Plitidepsin pre-treatment of THP-1 NFκB luc cells before Resiquimod: cell viability", "type": "cell-based, human", "settings": "1, 10 or 50 nM added 8 hours before Resiquimod 2.5 or 5 µg/mL; measured at 24 hours", "description": "(§1) In a further in vitro experiment, the effect of plitidepsin (APL) pre-treatment on THP-1 cells was studied. Using a THP-1 NFκB luc line, 1, 10 or 50 nM of APL or DMSO (0.2%) was added 8 hours before stimulus with Resiquimod (RQ) at 2.5 or 5 µg/mL. RQ is a TLR⅞ agonist and mimics ssRNA. At 24 hours the level of cytokines or cell viability was measured."}, "alveolar macrophages": {"system": "alveolar macrophages", "assay": "LPS animal inflammation model: macrophages in bronchoalveolar lavage by flow cytometry", "type": "in vivo, mouse", "settings": "mice 1 mg/kg single i.v., LPS 20 µg/kg i.p.", "from_the_text": "Three hours later, bronchoalveolar lavages were collected."}, "[4]": {"system": "IL6, IL8, IL1β and TNF-α secretion", "assay": "Plitidepsin pre-treatment of THP-1 NFκB luc cells before Resiquimod: cytokines", "type": "cell-based, human", "settings": "1, 10 or 50 nM added 8 hours before Resiquimod 2.5 or 5 µg/mL; measured at 24 hours", "description": "as §1"}, "SARS-CoV-2": {"system": "SARS-CoV-2", "assay": "APLICOV-PC clinical study in patients hospitalised for COVID-19: efficacy", "type": "in vivo, human"}, "TNFα": {"system": "TNFα", "assay": "Resiquimod-triggered TNFα in BALF of mice", "type": "in vivo", "settings": "mice 1 mg/kg i.v. 1 hour before 50 µg/mouse intranasal resiquimod; 1 and 3 hours"}}, "note": "Like-named read-outs stand apart in the source and are kept apart here. Numbered stars: 1 amine (or outer) side, 2 acyl side, 3 side chain; on linkers, the order of the positions; unused ones are H or OH. Bridge positions count the residues as written; N and C are the ends. Square brackets hold non-standard residues; d marks the D form. Peptide text beside a SMILES is read from it. * marks the point of attachment. Benzothiophen(2-yl)carbonyl = O=C(c1cc2ccccc2s1)*; X2 = CC[C@H](C)[C@@H](N[*:1])[C@@H](O)CC(=O)[*:2]; NMeY = CN[C@@H](Cc1ccc(O)cc1)C(=O)O; dNMeL = CN[C@H](CC(C)C)C(=O)O; Hiv = CC(C)[C@H](O)C(=O)O; Aib = CC(C)(N)C(=O)O", "data": [{"smiles": "CC[C@H](C)[C@H]1NC(=O)[C@@H](NC(=O)[C@@H](CC(C)C)NC)[C@@H](C)OC(=O)[C@H](Cc2ccc(OC)cc2)N(C)C(=O)[C@@H]2CCCN2C(=O)[C@H](CC(C)C)NC(=O)C(C)(C)NC(=O)C[C@@H]1O", "note": "[Compound 3] (H-[dNMeL]T[X2][Aib]LP[NMeY](Me); ester 2-C)", "values": [{"measurement": "Toxic concentrations (not reached at)", "setting": "MT-2 cells", "value": "> 57.3", "unit": "µM"}]}, {"smiles": "CC[C@H](C)[C@H]1NC(=O)[C@@H](NC(=O)[C@H](CC(C)C)N(C)C(=O)[C@@H]2CCCN2C(=O)C(C)=O)[C@@H](C)OC(=O)[C@H](Cc2ccc(OC)cc2)N(C)C(=O)[C@@H]2CCCN2C(=O)[C@H](CC(C)C)NC(=O)[C@@H](C)C(=O)[C@H](C(C)C)OC(=O)C[C@@H]1O", "note": "[Compound 8]", "values": [{"measurement": "Antiviral activity", "setting": "[1]", "value": "antiviral activity"}, {"measurement": "Antiviral activity", "setting": "[2]", "value": "antiviral activity"}]}, {"smiles": "CC[C@H](C)[C@H]1NC(=O)[C@@H](NC(=O)[C@@H](CC(C)C)N(C)C(=O)[C@@H]2CCCN2C(=O)[C@H](C)NC(=O)[C@@H](Cc2ccccc2)NC(=O)OC(C)(C)C)[C@@H](C)OC(=O)[C@H](Cc2ccc(OC)cc2)N(C)C(=O)[C@@H]2CCCN2C(=O)[C@H](CC(C)C)NC(=O)[C@@H](C)C(=O)[C@H](C(C)C)OC(=O)C[C@@H]1O", "note": "[Compound 9]", "values": [{"measurement": "Antiviral activity (GFP fluorescence images)", "setting": "HCoV-229E", "value": "remarkable antiviral properties are seen across all concentrations"}, {"measurement": "Cell growth / viability (DAPI fluorescence images)", "setting": "[3]", "value": "cells remain viable at all concentrations"}]}, {"smiles": "CC[C@H](C)[C@H]1NC(=O)[C@@H](NC(=O)[C@@H](CC(C)C)N(C)C(=O)c2cc3ccccc3s2)[C@@H](C)OC(=O)[C@H](Cc2ccc(OC)cc2)N(C)C(=O)[C@@H]2CCCN2C(=O)[C@H](CC(C)C)NC(=O)[C@H](C(C)C)OC(=O)C[C@@H]1O", "note": "[Compound 10] ({Benzothiophen(2-yl)carbonyl}-[dNMeL]T[X2][Hiv]LP[NMeY](Me); ester 2-C)", "values": [{"measurement": "Antiviral activity (GFP fluorescence images)", "setting": "HCoV-229E", "value": "remarkable antiviral properties are seen across all concentrations"}, {"measurement": "Cell growth / viability (DAPI fluorescence images)", "setting": "[3]", "value": "cells remain viable at all concentrations"}]}, {"smiles": "CC[C@H](C)[C@H]1NC(=O)[C@@H](NC(=O)[C@H](CC(C)C)N(C)C(=O)[C@@H]2CCCN2C(=O)C(C)=O)[C@@H](C)OC(=O)[C@H](Cc2ccc(OC)cc2)N(C)C(=O)[C@@H]2CCCN2C(=O)[C@H](CC(C)C)NC(=O)[C@@H](C)C(=O)[C@H](C(C)C)OC(=O)C[C@@H]1O", "note": "[PLD, Plitidepsin]", "values": [{"measurement": "Cell viability", "setting": "THP-1 cells", "value": "does not decrease viability over the untreated control"}, {"measurement": "Antiviral activity (GFP fluorescence images)", "setting": "HCoV-229E", "value": "remarkable antiviral properties are seen across all concentrations"}, {"measurement": "Macrophages in bronchoalveolar lavage", "setting": "alveolar macrophages", "value": "reduces the number of macrophages in BAL"}, {"measurement": "Secretion of IL6, IL8, IL1β and TNF-α induced by RQ", "setting": "[4]", "value": "inhibited secretion of the pro-inflammatory cytokines: IL6, IL8, IL1β and TNF-α"}, {"measurement": "Cell growth / viability (DAPI fluorescence images)", "setting": "[3]", "value": "cells remain viable at all concentrations"}, {"measurement": "Median time for PCR conversion", "setting": "SARS-CoV-2", "value": 7, "unit": "days"}, {"measurement": "Evaluable patients requiring post PLD specific anti COVID 19 therapy", "setting": "SARS-CoV-2; interim results", "value": "2 out of 8"}, {"measurement": "Evaluable patients with disease control and major clinical improvements", "setting": "SARS-CoV-2; interim results", "value": "6 out of 8"}, {"measurement": "Evaluable patients with PCR conversion to negative", "setting": "SARS-CoV-2; interim results, 1.5 mg and 2 mg cohorts", "value": "6 out of 8"}, {"measurement": "Deaths on study", "setting": "SARS-CoV-2; interim results, 9 patients", "value": "no deaths on study"}, {"measurement": "Need for mechanical ventilation or ICU admission", "setting": "SARS-CoV-2; interim results, 9 patients", "value": "none of the patients required mechanical ventilation or ICU admission"}, {"measurement": "Median time to hospital discharge", "setting": "SARS-CoV-2; interim results, range (7 -19)", "value": 8, "unit": "days"}, {"measurement": "Resiquimod-induced TNFα production in BALF", "setting": "TNFα", "value": "prevented the increased production of TNFα"}]}]}
